Data from patent US11992467B2, “Promotion of lymphatic function” (Universitaet Basel, priority 2014, dated 2024).

Assays:
lymphangiogenesis = conditions: experimental mouse lymphedema models; cited from earlier work
Plasmodium = conditions: cited from earlier work
A2780 = conditions: cited from earlier work
fungi = conditions: cited from earlier work
K562 = conditions: cited from earlier work
LEC = experiment: Sprouting assay (LEC-coated microcarriers in collagen); type: cell-based, human; conditions: 24 hours
Protocol: To investigate cell sprouting, cytodex microcarriers were coated with LECs (Schulz et al. (2012) Phenotype-based high-content chemical library screening identifies statins as inhibitors of in vivo lymphangiogenesis. Proc Natl Acad Sci USA 109, E2665-2674). Then, the microcarriers were embedded in a collagen solution and media containing 0.1% DMSO, 20 ng/ml VEGF-A, or different concentrations of the IG extract, its subfractions or iridals were added for 24 hours. The induced sprouts were imaged at 4× magnification (Molecular Devices ImageXpress Micro HCS microscope MD2, Photometrics CoolSNAP HQ camera, Photometrics, Tucson, AZ, USA). Image analysis was performed using ImageJ64 and the number of sprouts per microcarrier was counted and plotted. Three replicates per condition were performed.

[1] = system: guinea pig mesenteric lymphatic vessels; experiment: Ex vivo lymphatic contractility assay
Excerpt: Guinea pigs (7-15 days of age) were killed by decapitation during deep anaesthesia induced by inhalation of isoflurane. The small intestine with its attached mesentery was rapidly dissected and placed in a physiological saline solution (PSS) of the following composition (mM): CaCl2, 2.5; KCl, 5; MgCl2, 2; NaCl, 120; NaHCO3, 25; NaH2PO4, 1; glucose, 11. The pH was maintained at 7.4 by constant bubbling with 95% O2/5% CO2. […]
The organ bath was then mounted on the stage of an inverted microscope and continuously superfused at a flow rate of 3 ml/min with PSS heated to 36° C. […] A custom-written MatLab program detected vessel diameter changes on the video image and recorded them as a function of time, allowing measurement of frequency and amplitude of contractions. Decreases in vessel diameter greater than 50% of the diastolic diameter were counted as contractions. Preparations were allowed a 30 min equilibration period prior to drug application during which pumping was assessed. […] A 5 min control period of contractile activity was recorded prior to a 1 to 5 min application of iripallidal and effects on vessel contraction frequency were assessed during the ten subsequent minutes.

[2] = system: cytochrome P450 1A isoenzyme; conditions: cited from earlier work

CC1=C(/C=C/C(C)=C\C=C\C(C)=C\C(=O)O)C(C)(C)CCC1 [9-cis retinoic acid]
lymphangiogenesis (lymphangiogenesis): promote lymphangiogenesis

CC(C)=CCC/C(C)=C/CC/C(C)=C/CC[C@@]1(C)[C@H](CCCO)/C(=C(/C)C=O)CC[C@]1(C)O [Iridal]
antiplasmodial activity (Plasmodium): antiplasmodial activity | activity on human tumor cell line (A2780): interesting activity on two human tumor cell lines | antifungal activity (fungi): no antifungal activity | activity on human tumor cell line (K562): interesting activity on two human tumor cell lines

CC(C)=CCC/C(C)=C/CC(O)/C(C)=C/CC[C@@]1(C)[C@H](CCCO)/C(=C(\C)C=O)CC[C@]1(C)O (some centres unmarked) [Iridobelamal A]
Minimal effective concentration in sprouting assay (LEC): 3 µM

C=C1CC[C@H](C)C(C)(C)[C@@H]1/C=C/C(C)=C/CC[C@@]1(CO)[C@H](CCCO)/C(=C(/C)C=O)CC[C@]1(C)O [Iriflorental]
Minimal effective concentration in sprouting assay (LEC): 0.03 µM

CC1=CC[C@H](C)C(C)(C)[C@@H]1/C=C/C(C)=C/CC[C@@]1(CO)[C@H](CCCO)/C(=C(/C)C=O)CC[C@]1(C)O [Iripallidal]
Minimal effective concentration in sprouting assay (LEC): 0.03 µM | vessels with small, but significant increase in contraction frequency ([1]; 10 μM): 5 out of 6 | vessels with small, but significant increase in contraction frequency ([1]; 30 μM (data not shown)): 4 out of 4

COc1cc(-c2coc3cc(O)c(OC)c(O)c3c2=O)cc(O)c1OC [irigenin]
inhibition of cytochrome P450 1A isoenzyme [2]: potent inhibitors

O=c1c(-c2ccc(O)cc2)coc2cc3c(c(O)c12)OCO3 [irilone]
inhibition of cytochrome P450 1A isoenzyme [2]: potent inhibitors

C=C1CC[C@H](C)C(C)(C)[C@@H]1CC/C(C)=C/CC[C@@]1(C)[C@H](CCCO)/C(=C(/C)C=O)CC[C@]1(C)O [γ-irigermanal]
Minimal effective concentration in sprouting assay (LEC): 0.01 µM

Cis isomer of α-dehydroirigermanal
Minimal effective concentration in sprouting assay (LEC): 0.01 µM

Irigermanone
Minimal effective concentration in sprouting assay (LEC): 10 µM

Irisgermanical C
Minimal effective concentration in sprouting assay (LEC): 1 µM

iriflogenin
inhibition of cytochrome P450 1A isoenzyme [2]: potent inhibitors
